Measured values from US20050245399A1, “Pyrazole derivatives as herbicidal compositions containing them” (ISHIHARA SANGYO KAISHA, LTD., priority 2004, published 2005).

Tests used:
Type in all cases: in vivo
[1] = system: corn (Zea mays L.), ZEAMX; experiment: Test Example 2 post-emergence (foliage treatment) herbicidal activity, ZEAMX; conditions: 63 g a.i./ha
Outline: (§1)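 Foliar spray of formulated compound (500 L/ha dilution water, 0.1% v/v spreader) onto young potted plants at defined leaf stages. Scored 0-100% by visual inspection 20-23 d post-spray.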

[2] = system: corn (Zea mays L.): ZEAMX; experiment: Test Example 1 pre-emergence herbicidal activity, ZEAMX; conditions: Rate 63 g a.i./ha, visually observed 20th to 23rd day after application
Outline: (§2)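 Compound was delivered by small sprayer to sown upland soil one day after sowing, before emergence, at 500 L/ha spray volume. Plant growth was assessed visually around 3 weeks later (days 20–23), 100% denoting complete kill.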

[3] = system: barnyardgrass (Echinochloa crus-galli L.): ECHCG; experiment: Test Example 1 pre-emergence herbicidal activity, ECHCG; conditions: Rate 63 g a.i./ha, visually observed 20th to 23rd day after application
Outline: as §2

[4] = system: crabgrass (Digitaria sanguinalis L.): DIGSA; experiment: Test Example 1 pre-emergence herbicidal activity, DIGSA; conditions: Rate 63 g a.i./ha, visually observed 20th to 23rd day after application
Outline: as §2

[5] = system: crabgrass (Digitaria sanguinalis L.), DIGSA; experiment: Test Example 2 post-emergence (foliage treatment) herbicidal activity, DIGSA; conditions: 63 g a.i./ha
Outline: (§3)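 Greenhouse pot test with upland field soil. Treatment: foliage spray, active ingredient at a predetermined amount, 500 L/ha, spreader 0.1% (v/v); leaf stage 0.1-1.5 (AMARE), 1.1-2.1 (ECHCG), 1.0-2.0 (DIGSA), 1.0-2 (ORYSA). Endpoint: visual % control, d20-23.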

[6] = system: green foxtail (Setaria viridis L.): SETVI; experiment: Test Example 1 pre-emergence herbicidal activity, SETVI; conditions: Rate 63 g a.i./ha, visually observed 20th to 23rd day after application
Outline: as §2

[7] = system: velvetleaf (Abutilon theophrasti), ABUTH; experiment: Test Example 2 post-emergence (foliage treatment) herbicidal activity, ABUTH; conditions: 63 g a.i./ha
Outline: as §1

[8] = system: prickly sida (Sida spinosa L.), SIDSP; experiment: Test Example 2 post-emergence (foliage treatment) herbicidal activity, SIDSP; conditions: 63 g a.i./ha
Source text: (§4) Upland field soil was put into a 1/170,000 ha pot, and seeds of various plants were sown. Then, when the plants reached predetermined leaf stages {1. barnyardgrass (Echinochloa crus-galli L.), ECHCG: 1.1-2.1 leaf stage, 2. crabgrass (Digitaria sanguinalis L.), DIGSA: 1.0-2.0 leaf stage, 3. green foxtail (Setaria viridis L.), SETVI: 1.0-2.2 leaf stage, 4. redroot pigweed (Amaranthus retroflexus L.), AMARE: 0.1-1.5 leaf stage, 5. prickly sida (Sida spinosa L.), SIDSP: 0.1-0.6 leaf stage, 6. velvetleaf (Abutilon theophrasti), ABUTH: 0.1-0.6 leaf stage, 7. common cocklebur (Xanthium strumarium L.), XANST: 0.1 leaf stage, 8. rice (Oryza sativa L.), ORYSA; 1.0-2 leaf stage, 9. wheat (Triticum aestivum L.), TRZAX: 2.3-3.5 leaf stage, 10. corn (Zea mays L.), ZEAMXN 2.1-2.6 leaf stage, 11. soybean (Glycine max Merr.), GLXMA: primary leaf stage}, a wettable powder or emulsifiable concentrate having the compound of the present invention formulated in accordance with a usual formulation method, was weighed so that the active ingredient would be a predetermined amount, and diluted with water in an amount of 500 L/ha. To the diluted solution, 0.1% (v/v) of an agricultural spreader was added. The herbicide adjusted was applied by a small size sprayer for foliage treatment. On the 20th to 23rd day after the application of the herbicide, the growth of the respective plants was visually observed, and the herbicidal effects were evaluated by growth controlling degrees (%) ranging from 0 (equivalent to the untreated control) to 100 (complete kill), whereby the results shown in Table 5, were obtained. Compound Nos. in Table 5 correspond to Compound Nos. in Table 1 and 2 given hereinbefore.

[9] = system: wheat (Triticum aestivum L.): TRZAX; experiment: Test Example 1 pre-emergence herbicidal activity, TRZAX; conditions: Rate 63 g a.i./ha, visually observed 20th to 23rd day after application
Outline: as §2

[10] = system: velvetleaf (Abutilon theophrasti): ABUTH; experiment: Test Example 1 pre-emergence herbicidal activity, ABUTH; conditions: Rate 63 g a.i./ha, visually observed 20th to 23rd day after application
Outline: as §2

[11] = system: prickly sida (Sida spinosa L.): SEDSP; experiment: Test Example 1 pre-emergence herbicidal activity, SIDSP; conditions: Rate 63 g a.i./ha, visually observed 20th to 23rd day after application
Outline: as §2

[12] = system: soybean (Glycine max Merr.), GLXMA; experiment: Test Example 2 post-emergence (foliage treatment) herbicidal activity, GLXMA; conditions: 63 g a.i./ha
Outline: as §1

[13] = system: green foxtail (Setaria viridis L.), SETVI; experiment: Test Example 2 post-emergence (foliage treatment) herbicidal activity, SETVI; conditions: 63 g a.i./ha
Outline: as §1

[14] = system: redroot pigweed (Amaranthus retroflexus L.), AMARE; experiment: Test Example 2 post-emergence (foliage treatment) herbicidal activity, AMARE; conditions: 63 g a.i./ha
Source text: as §4

[15] = system: rice (Oryza sativa L.): ORYSA; experiment: Test Example 1 pre-emergence herbicidal activity, ORYSA; conditions: Rate 63 g a.i./ha, visually observed 20th to 23rd day after application
Outline: as §2

[16] = system: redroot pigweed (Amaranthus retroflexus L.): AMARE; experiment: Test Example 1 pre-emergence herbicidal activity, AMARE; conditions: Rate 63 g a.i./ha, visually observed 20th to 23rd day after application
Outline: as §2

[17] = system: soybean (Glycine max Merr.): GLXMA; experiment: Test Example 1 pre-emergence herbicidal activity, GLXMA; conditions: Rate 63 g a.i./ha, visually observed 20th to 23rd day after application
Outline: as §2

[18] = system: wheat (Triticum aestivum L.), TRZAX; experiment: Test Example 2 post-emergence (foliage treatment) herbicidal activity, TRZAX; conditions: 63 g a.i./ha
Outline: as §1

[19] = system: barnyardgrass (Echinochloa crus-galli L.), ECHCG; experiment: Test Example 2 post-emergence (foliage treatment) herbicidal activity, ECHCG; conditions: 63 g a.i./ha
Outline: as §3

[20] = system: rice (Oryza sativa L.), ORYSA; experiment: Test Example 2 post-emergence (foliage treatment) herbicidal activity, ORYSA; conditions: 63 g a.i./ha
Outline: as §3

| SMILES | growth controlling degree, ZEAMX [1] [%] | Pre-emergence Herbicidal Activity ZEAMX (growth controlling degree) [2] [%] | Pre-emergence Herbicidal Activity ECHCG (growth controlling degree) [3] [%] | Pre-emergence Herbicidal Activity DIGSP (growth controlling degree) [4] [%] | growth controlling degree, DIGSP [5] [%] | Pre-emergence Herbicidal Activity SETVI (growth controlling degree) [6] [%] | growth controlling degree, ABUTH [7] [%] | growth controlling degree, SIDSP [8] [%] | Pre-emergence Herbicidal Activity TRZAX (growth controlling degree) [9] [%] | Pre-emergence Herbicidal Activity ABUTH (growth controlling degree) [10] [%] | Pre-emergence Herbicidal Activity SIDSP (growth controlling degree) [11] [%] | growth controlling degree, GLXMA [12] [%] | growth controlling degree, SETVI [13] [%] | growth controlling degree, AMARE [14] [%] | Pre-emergence Herbicidal Activity ORYSA (growth controlling degree) [15] [%] | Pre-emergence Herbicidal Activity AMARE (growth controlling degree) [16] [%] | Pre-emergence Herbicidal Activity GLXMA (growth controlling degree) [17] [%] | growth controlling degree, TRZAX [18] [%] | growth controlling degree, ECHCO [19] [%] | growth controlling degree, ORYSA [20] [%] |
| --- | --- | --- | --- | --- | --- | --- | --- | --- | --- | --- | --- | --- | --- | --- | --- | --- | --- | --- | --- | --- |
| COc1c(Cl)cc(F)c(-c2nn(C)c(OC(F)F)c2Cl)c1NC(=O)C=Cc1cccc(C)c1 [Compound 1-254] | 30 | 0 | 60 | 60 | 60 | 50 | 100 | 100 | 0 | 50 | 60 | 70 | 95 | 100 | 20 | 100 | 0 | 30 | 80 | 90 |
| COc1c(Cl)cc(F)c(-c2nn(C)c(OC(F)F)c2Cl)c1NCCc1cccc(C)c1 [Compound 1-50] | 80 | 10 | 70 | 100 | 90 | 100 | 100 | 100 | 30 | 100 | 100 | 95 |  | 100 | 20 | 100 | 10 | 70 | 100 | 95 |
| COc1c(Cl)cc(F)c(-c2nn(C)c(OC(F)F)c2Cl)c1NC(=O)CCc1ccccc1C [Compound 1-37] | 70 | 0 | 60 | 100 | 80 | 80 | 100 | 100 | 30 | 40 | 95 | 98 |  | 100 | 20 | 100 | 0 | 50 | 98 | 90 |
| COc1c(Cl)cc(F)c(-c2nn(C)c(OC(F)F)c2Cl)c1NC(=O)COCc1ccccc1 [Compound 1-45] | 40 | 0 | 0 | 90 | 70 | 40 | 100 |  | 10 | 30 | 0 | 60 | 90 | 100 | 30 | 100 | 0 | 40 | 95 | 80 |
| COc1c(Cl)cc(F)c(-c2nn(C)c(OC(F)F)c2Cl)c1NC(=O)c1cccc(C)c1 [Compound 1-260] | 60 | 10 | 60 | 100 | 95 | 100 | 100 |  | 30 | 40 | 70 | 70 | 100 | 100 | 50 | 100 | 0 | 40 | 100 | 60 |
| COc1c(Cl)cc(F)c(-c2nn(C)c(OC(F)F)c2Cl)c1NC(=O)CCC1CCCCC1 [Compound 1-259] | 0 | 0 | 10 | 20 | 30 | 30 | 100 |  | 10 | 0 | 30 | 10 | 50 | 100 | 0 | 100 | 0 | 0 | 50 | 10 |
